Reference: US20190060340A1, “NOVEL AMINOGLYCOSIDES AND USES THEREOF IN THE TREATMENT OF GENETIC DISORDERS” (Technion Research & Development Foundation Limited, priority 2007, published 2019)
Converted amounts (≈) assume the structure as drawn. “And” between values parts separate entries of the source, which are not always exact repeats. Equal entries are not always repeated.

Columns and labels:
[1] = test system: Escherichia coli ATCC 25922; experiment: Antibacterial activity, MIC by double-microdilution method; assay type: cell-based; conditions: ATCC 25922; for MIC: Escherichia coli, ATCC25922, read-out: MIC E. coli
Experimental: (§1) In order to compare the observed aminoglycoside-induced stop codon read-through activity in mammalian cells to antibacterial activity thereof, Compounds 1-9 were further investigated as antibacterial agents against both Gram-negative (E. coli) and Gram-positive (Bacillus subtilis) bacteria, and the minimal inhibitory concentration (MIC) values were determined by using a microdilution assay with paromomycin and gentamicin as controls, and the results are presented in Table 18 hereinabove.
(§2) The bacterial strains used were Escherichia coli ATCC 25922, and Bacillus Subtilis ATCC 6633. […] All the experiments were performed in triplicates and analogous results were obtained in two to four different experiments.

[2] = test system: Bacillus Subtilis ATCC 6633; experiment: as above; assay type: cell-based; conditions: ATCC 6633; for MIC: Bacillus subtilis, ATCC6633, read-out: MIC B. Subtilis
Experimental: as §1, §2

[3] = test system: R245X nonsense mutation (a premature UGA A stop codon) of the PCDH15 gene; experiment: In vitro suppression, pDB reporter plasmid in reticulocyte lysate; assay type: biochemical, human; conditions: for Concentration (μM) at which maximal suppression was observed, R245X / suppression level (%), maximum in vitro, R245X: Table 20; for suppression level (%), maximum in vitro, R245X: at concentration of maximal suppression; for difference in suppression of R3X versus R245X: maximal suppression levels
Experimental: Compound 37 was tested for its ability to suppress a nonsense mutation in-vitro, using a reporter construct carrying either R3X nonsense mutation (a premature UGA C stop codon) or R245X nonsense mutation (a premature UGA A stop codon) of the PCDH15 gene, using gentamicin, paromomycin and Compound 3 as standards and following the experimental procedures presented hereinabove.
For the rat-PGM-β-Gal in vitro readthrough system, the pDB series of reporter plasmids harbor the following elements under SP6 promoter control: an open reading frame (ORF) derived from the 5′ end of the rat PGM gene, which encodes a 25-kDa polypeptide; another small ORF, encoding the 10-kDa alpha complementation region of β-galactosidase, and terminated by tandem, in-frame stop codons (UAA UAG); located between the two ORFs is a DNA fragment derived from PCDH15 cDNA, including the tested stop mutation or the corresponding wild-type codon, and six upstream and downstream flanking codons (except for p.R3X constructs, in which there are only two upstream PCDH15-flanking codons). The fragments were created by annealing the following couples of complementary oligonucleotides:
The fragments were inserted into the BamHI and HindIII restriction sites of the pDB read-through construct. Reporter plasmids harboring each of the four nonsense mutations and the corresponding wt alleles were in vitro transcribed and translated using the TNT SP6 Coupled Reticulocyte lysate System (Promega) in the presence of [^35S]-methionine and increasing concentrations of aminoglycosides as described previously. […] The degree of suppression was calculated as the relative proportion of the 35-kDa product out of total reaction products (35-kDa and 25-kDa polypeptides). The results are averages of at least three independent experiments.

[4] = test system: prokaryotic translation; experiment: Inhibition of prokaryotic translation; assay type: biochemical; conditions: for preference for inhibiting translation in prokaryotes versus eukaryotes: from IC50 values
[5] = test system: original p2Luc plasmid containing a TGA C nonsense mutation; experiment: Dual luciferase in vitro transcription/translation assay; assay type: biochemical; conditions: for Conc. (μM) at which maximum suppression level was achieved: dual luciferase in vitro system, all constructs of Table 21; for Maximum in vitro suppression (%) UGAC: p2luc
Source text: DNA fragments derived from the subsequent genes, including the tested stop mutation or the corresponding wild-type codon, and four upstream and downstream flanking codons (except for p.R3X constructs, in which there are only two upstream PCDH15-flanking codons) were cloned into p2Luc plasmid between renilla and firefly luciferase genes as described previously. The formed plasmids, as well as the original p2Luc plasmid containing a TGA C nonsense mutation, were transcribed and translated in vitro and the stop codon suppression efficiency was calculated as described previously.
For the dual luciferase in vitro transcription/translation assay, DNA fragments derived from PCDH15, CFTR, Dystrophin and IDUA cDNAs, including the tested stop mutation or the corresponding wild-type codon, and four upstream and downstream flanking codons (except for p.R3X constructs, in which there are only two upstream PCDH15-flanking codons) were created by annealing the couples of complementary oligonucleotides presented above.
Fragments were inserted into the SalI and SacI restriction sites of the p2Luc plasmid between renilla and firefly luciferase genes. The afforded plasmids, as well as the original p2Luc plasmid containing a TGA C nonsense mutation, were transcribed and translated using the TNT Reticulocyte Lysate Quick Coupled Transcription/Translation System (Promega™). Each transcription/translation reaction (10 μl, total volume) contained 8 μl TNT T7 Quick Master Mix, 0.2 μl methionine (1 mM), 0.8 μl DNA template (2 μg/μl), 1 μl of either water (blank) or 1 μl solution of increasing concentrations of the tested aminoglycosides in water. Luciferase activity was determined following 90 minutes incubation at 30° C. using the Dual Luciferase Reporter Assay System (Promega™). The total luminescence produced by each one of the proteins was measured separately using the FLx800 multidetection plate reader (Bio-Tek) and the stop codon suppression efficiency was calculated as described previously. The results are averages of at least three independent experiments.

[6] = test system: Escherichia coli (R477-100); experiment: Antibacterial activity, MIC; assay type: cell-based; conditions: for MIC: Escherichia coli, read-out: minimal inhibitory concentration (MIC)

Compound	MIC [1]	MIC [2]	Concentration (μM) at which maximal suppression was observed, R245X [3]	suppression level (%), maximum in vitro, R245X [3]	difference in suppression of R3X versus R245X [3]	efficacy of inhibiting prokaryotic ribosome relative to gentamicin and paromomycin [4]	preference for inhibiting translation in prokaryotes versus eukaryotes [4]	Conc. (μM) at which maximum suppression level was achieved [5]	Maximum in vitro suppression (%) UGAC [5]	MIC [6]	fold better suppression of R245X than Compound 3 ([3]; maximal suppression level)	fold better suppression of R245X than gentamicin ([3]; maximal suppression level)	fold better suppression of R245X than paromomycin ([3]; maximal suppression level)	MIC E. coli [1]	MIC B. Subtilis [2]	minimal inhibitory concentration (MIC) ([6]; Escherichia coli (R477-100))
NC[C@H]1O[C@@H](O[C@@H]2[C@@H](O)[C@H](N)C[C@H](N)[C@H]2O[C@H]2O[C@H](CO)[C@@H](O)[C@H](O)[C@H]2N)[C@H](O)[C@@H]1O [Compound 3]	> 512 mg/L	48 mg/L (≈ 106 µM)	178 µM	6.0 ± 0.3%	3.5 fold	significantly lower	about two-order of magnitude	107 µM	4.8 ± 0.8%	790 µM (≈ 359 µg/mL)	–	–	–	–	–	–
NCC[C@H](O)C(=O)N[C@@H]1CC(N)[C@@H](O[C@H]2OC(CO)[C@@H](O)C(O)C2N)C(O[C@@H]2O[C@H](CN)C(O)C2O)C1O (stereo partly drawn) [Compound 37]	–	–	153 µM	40.5% and 40.5 ± 7.5%	1.8 fold	significantly lower	about two-order of magnitude	46 µM	18.4 ± 1.6%	384 µM (≈ 213 µg/mL)	6.5 fold	3.6 fold	4.5 fold	–	–	–
NC[C@@H]1O[C@H](O[C@H]2[C@@H](O)[C@H](O[C@@H]3[C@@H](O)[C@H](N)C[C@H](N)[C@H]3O[C@H]3O[C@H](CO)[C@@H](O)[C@H](O)[C@H]3N)O[C@@H]2CO)[C@H](N)[C@@H](O)[C@@H]1O [paromomycin, reference compound]	12 mg/L (≈ 19.5 µM)	8 mg/L (≈ 13 µM)	42 µM	9 ± 3%	5.4 fold	–	about tree order of magnitude	42 µM	7.8 ± 2.2%	22 µM (≈ 13.5 µg/mL)	–	–	–	–	–	–
gentamicin [reference compound]	–	–	61 µM	11 ± 1.5%	4.5 fold	–	about tree order of magnitude	46 µM	17.7 ± 2.9%	–	–	–	–	4 mg/L	<0.5 mg/L	6 µM
